Assay results reported in PMC4340794, “Pharmacokinetic Study of 14-(3-Methylbenzyl)matrine and 14-(4-Methylbenzyl)matrine in Rat Plasma Using Liquid Chromatography-Tandem Mass Spectrometry” (PLoS ONE, 2015).

How the values were obtained:
hepatoma = tested on: hepatoma; set-up: method as in earlier work; conditions: cited from earlier work; for tumor inhibition rate: previous pharmacological experiment
[1] = PK study using rats, oral administration, plasma levels by HPLC-MS/MS; type: in vivo, Sprague–Dawley rats; conditions: oral (gavage) 25 mg/kg, mean ± SD; for Tmax / AUC(0-t) / Cmax / half-life / k el / MRT last: Sprague-Dawley; for Tmax / AUC(0-t): rat, plasma, po, 25 mg/kg; for Cmax / half-life / k el / MRT last / CL / V: rat plasma; for k el: read-out: Ke (converted); for MRT last: read-out: MRT0−t (converted)
Description: HPLC analysis was performed using the Dionex UltiMate 3000 HPLC equipped with a binary pump, an on-line degasser, an auto-sampler and a column temperature controller. The chromatographic separations were performed using a Hypersil GOLD C18 column (100 mm × 2.1 mm, 1.9 μm particle size) protected by a C18 guard column (10 mm × 2.1 mm, 5 μm) at 40°C. The mobile phase consisted of acetonitrile:0.1% formic acid (65:35, v/v). The flow rate was set at 0.2 ml/min. Aliquots of 2 μl were injected into the HPLC system for analysis.
MS analysis was performed using a Thermo Scientific TSQ Quantum Access MAX triple-stage quadrupole mass spectrometer equipped with an electrospray ionization (ESI) source in the positive-ionization mode. The typical ion source parameters were as follows: spray voltage: 3500 V; sheath gas pressure (N2): 20 units; auxiliary gas pressure (N2): 5 units; ion transfer tube temperature: 350°C; collision gas (Ar): 1.5 mTorr; Q1/Q3 peak resolution: 0.7 Da; and scan width: 0.002 Da. The samples were analyzed via selective-reaction monitoring (SRM) of the ion pairs at m/z 343 → 148 for 3MBM, m/z 343 → 148 for 4MBM, or m/z 166 → 133 for the IS. The scan dwell time was set at 0.1 s for every channel. All data collected in the centroid mode were acquired and processed using Xcalibur 2.2 software (Thermo Fisher Scientific, Inc., USA).
Each plasma sample (100 μl) was mixed with 20 μl of the working IS solution in a 1.5-ml labeled microcentrifuge tube and was vortexed for 5 s. Then, 1000 μl of isopropanol:ethyl acetate (v/v, 25:75) was added, and each sample was vortexed for 1 min. Each tube was subsequently centrifuged at 12,000 × g for 10 min. The organic layer was transferred to another tube and evaporated to dryness at ambient temperature under a gentle stream of nitrogen. The residue was reconstituted in 100 μl of the mobile phase, and 2 μl of each sample was injected into the HPLC–MS/MS system for analysis.
Aqueous solutions of 3MBM and 4MBM were separately administered to 12 rats via gavage at 25 mg/kg (2.5 mg/ml aqueous solutions), which was equivalent to the dose administered to mice in our previous study. Serial blood samples (0.5 ml) were obtained at 0, 15, 30, 45, 60, 90, 120, 150, 240, 600, 960, and 1440 min after oral administration. All samples were placed in heparinized tubes. After centrifugation at 12,000 rpm and 4°C for 10 min, the plasma was collected and frozen at −20°C until analysis. The PK parameters were estimated according to a non-compartmental model using the TopFit 2.0 software package (Thomae, Germany). The elimination half-life (t1/2) was 0.693/ke, where ke, the elimination rate constant, was calculated by fitting the mean data at four terminal points of the plasma concentration profile to a log-linear regression equation using the least-squares method. The maximum drug plasma concentration (Cmax) and time to Cmax (Tmax) were directly determined from the observed data. The area under the plasma concentration–time curve from zero to the time of the final measurable sample (AUC0−t) was calculated using the linear-trapezoidal rule.

[2] = Stability of analytes in rat plasma samples (post-preparative, freeze–thaw, long-term cold storage); type: in vitro ADME; conditions: for Stability III R.E. / Stability III Concentration / Stability II Concentration / Stability II R.E.: plasma; for Stability III R.E. / Stability III Concentration: 60 days at -20° C; for Stability III Concentration / Stability II Concentration / Stability I Concentration: n = 6, mean ± SD; for Stability II Concentration / Stability II R.E.: three freeze-thaw cycles; for Stability I R.E. / Stability I Concentration: processed samples, auto-sampler 24 h
Description: Selectivity was assessed by comparing the chromatograms of six different batches of blank rat plasma to the corresponding spiked rat plasma. Linearity was assessed via weighted (1/x^2) analysis of the six different calibration curves. Intra- and inter-day precision (the relative standard deviation, RSD) and accuracy (the relative error, RE) were determined by analyzing the low-, intermediate-, and high-concentration QC samples (n = 6) on three different days. The matrix effect was investigated by comparing the peak areas of the analytes in the post-extraction spiked blank plasma samples at low and high analyte concentrations to the corresponding standard solutions. The extraction yield was determined by comparing the mean peak areas of the six extracted samples at low, intermediate, and high QC concentrations to the mean peak areas of the spike-after-extraction samples. Stability was assessed by analyzing the replicates (n = 6) of the low, intermediate and high QC samples during the sample storage and processing procedures. Freeze–thaw stability was determined after three freeze–thaw cycles. Post-preparation stability was estimated by analyzing the QC samples after 24 h at 4°C. Six aliquots of the QC samples were stored at −20°C for 60 days to determine their long-term stability.

SMILES | tumor inhibition rate (hepatoma) [%] | Tmax [1] [h] | AUC(0-t) ([1]; first AUC0-t line of Table 3) [ng·h/mL] | AUC(0-t) ([1]; second AUC0-t line of Table 3) [ng·h/mL] | Cmax [1] [ng/mL] | half-life [1] [h] | k el [1] [s⁻¹] | MRT last [1] [h] | CL [1] [mL/min] | V [1] [mL] | Stability III R.E. ([2]; spike 5 ng/ml) [%] | Stability III Concentration ([2]; spike 5 ng/ml) [ng/mL] | Stability II Concentration ([2]; spike 5 ng/ml) [ng/mL] | Stability I R.E. ([2]; spike 5 ng/ml) [%] | Stability I Concentration ([2]; spike 5 ng/ml) [ng/mL] | Stability III R.E. ([2]; spike 800 ng/ml) [%] | Stability III Concentration ([2]; spike 800 ng/ml) [ng/mL] | Stability II R.E. ([2]; spike 800 ng/ml) [%] | Stability II Concentration ([2]; spike 800 ng/ml) [ng/mL] | Stability I R.E. ([2]; spike 800 ng/ml) [%] | other results
O=C1CCC[C@@H]2[C@H]3CCCN4CCC[C@@H](CN12)[C@@H]34 [MT, Matrine] | 39.69 | – | – | – | – | – | – | – | – | – | – | – | – | – | – | – | – | – | – | – | –
Cc1ccc(CC2CCC3C4CCCN5CCCC(CN3C2=O)C45)cc1 (stereo not drawn) [4MBM, 14-(4-methylbenzyl)matrine] | 51.15 | ~1.58 | 7680 | 7920 | 992 ± 275 | 4.92 ± 0.367 | 3.94e-05 | 7.67 | 59 ± 21 | 24361 ± 6921 | 2.60 | 5.13 ± 0.37 | 4.98 ± 0.23 | 3.20 | 5.16 ± 0.29 | -1.58 | 787.4 ± 24.1 | -1.30 | 789.6 ± 67.9 | 3.11 | Stability I Concentration ([2]; spike 800 ng/ml): 824.9 ± 37.2 ng/mL; Stability III R.E. ([2]; spike 1600 ng/ml): 2.23%; Stability III Concentration ([2]; spike 1600 ng/ml): 1636 ± 36.6 ng/mL; Stability II R.E. ([2]; spike 1600 ng/ml): -1.04%; Stability II Concentration ([2]; spike 1600 ng/ml): 1583 ± 99.2 ng/mL; Stability I R.E. ([2]; spike 1600 ng/ml): -1.42%; Stability I Concentration ([2]; spike 1600 ng/ml): 1577 ± 60.7 ng/mL
Cc1cccc(CC2CCC3C4CCCN5CCCC(CN3C2=O)C45)c1 (stereo not drawn) [3MBM, 14-(3-methylbenzyl)matrine] | 61.83 | 1.47 | 7210 | 7480 | 1050 ± 233 | 4.97 ± 0.583 | 3.92e-05 | 7.4 | 59 ± 13 | 25119 ± 5779 | -3.80 | 4.81 ± 0.42 | 5.15 ± 0.35 | -1.02 | 4.94 ± 0.46 | 1.22 | 809.8 ± 30.9 | -1.82 | 785.4 ± 46.8 | -1.03 | Stability II R.E. ([2]; spike 5 ng/ml): 2.87%; Stability I Concentration ([2]; spike 800 ng/ml): 791.7 ± 13.6 ng/mL; Stability III R.E. ([2]; spike 1600 ng/ml): 3.78%; Stability III Concentration ([2]; spike 1600 ng/ml): 1660 ± 63.9 ng/mL; Stability II R.E. ([2]; spike 1600 ng/ml): 2.46%; Stability II Concentration ([2]; spike 1600 ng/ml): 1639 ± 98.5 ng/mL; Stability I R.E. ([2]; spike 1600 ng/ml): -0.40%; Stability I Concentration ([2]; spike 1600 ng/ml): 1593 ± 39.9 ng/mL; anti-hepatoma activity in vivo (hepatoma; compared with cyclophosphamide): the same as those of the reference substances of cyclophosphamide
